# Data from US7553618B2, “Method for determining human immunodeficiciency virus type 1 (HIV-1) hypersusceptibility to the protease inhibitor amprenavir” (Monogram Biosciences, Inc., priority 2002, dated 2009).
# Tested on: HIV-1 from patient plasma samples
# Assay: PHENOSENSE HIV phenotypic susceptibility assay, fold change in IC50 of patient virus versus NL4-3 reference virus
# Type: cell-based
# Settings: Patient IC50/reference (NL4-3) IC50; for Fold change (FC) in IC50, 10th percentile: 10th percentile of distribution over 1515 patient samples, hypersusceptibility cut-off; for Fold change (FC) in IC50, 90th percentile: 90th percentile of distribution over 1515 patient samples; for Fold change (FC) in IC50, mean: mean over 1515 patient samples without resistance-selected mutations; for Fold change (FC) in IC50, median: median over 1515 patient samples without resistance-selected mutations
# Procedure: In a preferred embodiment, the phenotypic analysis is performed using PHENOSENSE™ (ViroLogic Inc., South San Francisco, Calif.). See Petropoulos et al., 2000, Antimicrob. Agents Chemother. 44:920-928; U.S. Pat. Nos. 5,837,464 and 6,242,187. PHENOSENSE™ is a phenotypic assay that achieves the benefits of phenotypic testing and overcomes the drawbacks of previous assays. Because the assay has been automated, PHENOSENSE™ offers higher throughput under controlled conditions. The result is an assay that accurately defines the susceptibility profile of a patient's HIV isolates to all currently available antiretroviral drugs, and delivers results directly to the physician within about 10 to about 15 days of sample receipt. PHENOSENSE™ is accurate and can obtain results with only one round of viral replication, thereby avoiding selection of subpopulations of virus. The results are quantitative, measuring varying degrees of drug susceptibility, and sensitive—the test can be performed on blood specimens with a viral load of about 500 copies/mL and can detect minority populations of some drug-resistant virus at concentrations of 10% or less of total viral population. Furthermore, the results are reproducible and can vary by less than about 1.4-2.5 fold, depending on the drug, in about 95% of the assays performed.
# A resistance test vector (“RTV”) can then be constructed by incorporating the amplified viral gene sequences into a replication defective viral vector by using any method known in the art of incorporating gene sequences into a vector. In one embodiment, restrictions enzymes and conventional cloning methods are used. See Sambrook et al., 2001, Molecular Cloning: A Laboratory Manual, Cold Spring Harbor Laboratory, 3rd ed., NY; and Ausubel et al., 1989, Current Protocols in Molecular Biology, Greene Publishing Associates and Wiley Interscience, NY. In a preferred embodiment, ApaI and PinAI restriction enzymes are used. Preferably, the replication defective viral vector is the indicator gene viral vector (“IGVV”). In a preferred embodiment, the viral vector contains a means for detecting replication of the RTV. Preferably, the viral vector contains a luciferase expression cassette.
# The assay can be performed by first co-transfecting host cells with RTV DNA and a plasmid that expresses the envelope proteins of another retrovirus, for example, amphotropic murine leukemia virus (MLV). Following transfection, virus particles can be harvested and used to infect fresh target cells. The completion of a single round of viral replication can be detected by the means for detecting replication contained in the vector. In a preferred embodiment, the completion of a single round of viral replication results in the production of luciferase. Serial concentrations of anti-viral agents can be added at either the transfection step or the infection step.
# Susceptibility to the anti-viral agent can be measured by comparing the replication of the vector in the presence and absence of the anti-viral agent. For example, susceptibility to the anti-viral agent can be measured by comparing the luciferase activity in the presence and absence of the anti-viral agent. Susceptible viruses would produce low levels of luciferase activity in the presence of anti-viral agents, whereas viruses with reduced susceptibility would produce higher levels of luciferase activity.
# In order to determine the relationship between an HIV-1 strain's protease sequence and its susceptibility to treatment with a protease inhibitor, a data set of patient plasma samples was analyzed genotypically as well as phenotypically. The phenotypic assay was conducted using the PHENOSENSE™ (Virologic, South San Francisco, Calif.) HIV assay (Petropoulos et al., 2000, Antimicrob. Agents Chemother. 44:920-928; U.S. Pat. Nos. 5,837,464 and 6,242,187). Plasma samples were collected from HIV-1-infected patients. […]
Compound,"Fold change (FC) in IC50, 10th percentile","Fold change (FC) in IC50, 90th percentile","Fold change (FC) in IC50, mean","Fold change (FC) in IC50, median"
"CC(C)(C)NC(=O)[C@@H]1CN(Cc2cccnc2)CCN1C[C@@H](O)C[C@@H](Cc1ccccc1)C(=O)N[C@H]1c2ccccc2C[C@H]1O [IDV, indinavir]",0.44,1.35,0.78,0.78
"Cc1cccc(C)c1OCC(=O)N[C@@H](Cc1ccccc1)[C@@H](O)C[C@H](Cc1ccccc1)NC(=O)[C@H](C(C)C)N1CCCNC1=O [LPV, lopinavir]",0.40,1.15,0.68,0.69
"CC(C)(C)NC(=O)[C@@H]1C[C@@H]2CCCC[C@@H]2CN1C[C@@H](O)[C@H](Cc1ccccc1)NC(=O)[C@H](CC(N)=O)NC(=O)c1ccc2ccccc2n1 [SQV, saquinavir]",0.44,1.12,0.70,0.71
"Cc1c(O)cccc1C(=O)N[C@@H](CSc1ccccc1)[C@H](O)CN1C[C@H]2CCCC[C@H]2C[C@H]1C(=O)NC(C)(C)C [NFV, nelfinavir]",0.54,2.09,1.05,1.05
"CC(C)CN(C[C@@H](O)[C@H](Cc1ccccc1)NC(=O)O[C@H]1CCOC1)S(=O)(=O)c1ccc(N)cc1 [APV, amprenavir]",0.35,1.32,0.69,0.71
"CC(C)c1nc(CN(C)C(=O)N[C@H](C(=O)N[C@@H](Cc2ccccc2)C[C@H](O)[C@H](Cc2ccccc2)NC(=O)OCc2cncs2)C(C)C)cs1 [RTV, ritonavir]",0.45,1.55,0.82,0.81
